Test results from ChEMBL document CHEMBL6121066, “Structure-Activity Relationship Studies of DNA Methyltransferase 1 Monovalent Degraders” (J Med Chem, 2025).
Activity calls are given as the source filed them. No cut-off for these calls is given here.

tested on: MDA-MB-468; test: Effect on DNMT1 mRNA level in human MDA-MB-468 cells at 500 nM incubated for 24 hrs by RT-qPCR analysis; format: functional, cell-based; settings: not given

SMILES | Activity
CCc1c(C#N)c(SC(C(N)=O)c2ccccc2)nc(N2CCC(N)CC2)c1C#N (configuration not stated) | inactive

tested on: NCI-H1299; test: Induction of molecular glue effect mediated DNMT1 degradation in human NCI-H1299 cells assessed as reduction in DNMT1 protein level at 100 nM preincubated with MG132 for 2 hrs followed by compound addition and measured after 24 hrs by Western blot analysis; format: cell-based; settings: not given

SMILES | Activity
CCc1c(C#N)c(SC(C(N)=O)c2ccccc2)nc(N2CCC(N)CC2)c1C#N (configuration not stated) | inactive

tested on: HCT-116; test: Antiproliferative activity against human HCT-116 cells assessed as inhibition of cell growth upto 15 uM incubated for 7 days by CCK8 assay relative to control; format: functional; settings: time 7 day, up to 15 µM

SMILES | inhibition (INH)
CCc1c(C#N)c(SC(C(N)=O)c2ccccc2)nc(N2CCC(N)CC2)c1C#N (configuration not stated) | <50%

tested on: MDA-MB-468; test: Induction of molecular glue effect mediated DNMT1 degradation in human MDA-MB-468 cells assessed as reduction in DNMT1 protein level at 100 nM preincubated with MG132 for 2 hrs followed by compound addition and measured after 24 hrs by Western blot analysis; format: cell-based; settings: not given

SMILES | Activity
CCc1c(C#N)c(SC(C(N)=O)c2ccccc2)nc(N2CCC(N)CC2)c1C#N (configuration not stated) | inactive

tested on: HCT-116; test: Induction of molecular glue effect mediated DNMT3B degradation in human HCT-116 cells assessed as reduction in DNMT3B protein level at 500 nM incubated for 24 hrs by Western blot analysis; format: cell-based; settings: not given

SMILES | Activity
CCc1c(C#N)c(SC(C(N)=O)c2ccccc2)nc(N2CCC(N)CC2)c1C#N (configuration not stated) | inactive

tested on: HCT-116; test: Induction of molecular glue effect mediated DNMT1 degradation in human HCT-116 cells assessed as reduction in DNMT1 protein level at 100 nM preincubated with TRAF6 inhibitor C25-140 for 2 hrs followed by compound addition and measured after 24 hrs by Western blot analysis; format: cell-based; settings: not given

SMILES | Activity
CCc1c(C#N)c(SC(C(N)=O)c2ccccc2)nc(N2CCC(N)CC2)c1C#N (configuration not stated) | Active

tested on: HCT-116; test: Induction of molecular glue effect mediated DNMT3A degradation in human HCT-116 cells assessed as reduction in DNMT3A protein level at 500 nM incubated for 24 hrs by Western blot analysis; format: cell-based; settings: not given

SMILES | Activity
CCc1c(C#N)c(SC(C(N)=O)c2ccccc2)nc(N2CCC(N)CC2)c1C#N (configuration not stated) | inactive

tested on: HCT-116; test: Induction of molecular glue effect mediated DNMT1 degradation in human HCT-116 cells assessed as reduction in DNMT1 protein level at 100 nM preincubated with lysosome inhibitor CQ for 2 hrs followed by compound addition and measured after 24 hrs by Western blot analysis; format: cell-based; settings: not given

SMILES | Activity
CCc1c(C#N)c(SC(C(N)=O)c2ccccc2)nc(N2CCC(N)CC2)c1C#N (configuration not stated) | Active

tested on: HCT-116; test: Induction of molecular glue effect mediated DNMT1 degradation in human HCT-116 cells assessed as reduction in DNMT1 protein level by measuring half-life at 500 nM preincubated with cycloheximide for 2 hrs followed by compound administration and measured after 24 hrs by Western blot analysis; format: cell-based; settings: not given

SMILES | T1/2
CCc1c(C#N)c(SC(C(N)=O)c2ccccc2)nc(N2CCC(N)CC2)c1C#N (configuration not stated) | < 4 h

tested on: HCT-116; test: Induction of molecular glue effect mediated DNMT1 degradation in human HCT-116 cells assessed as reduction in DNMT1 protein level at 500 nM measured after 24 hrs by Western blot analysis relative to control; format: cell-based; parameters: scale not given: the % may be the effect or the level left; settings: not given

SMILES | Activity
CCc1c(C#N)c(SC(C(N)=O)c2ccccc2)nc(N2CCC(N)CC2)c1C#N (configuration not stated) | 100%

tested on: HCT-116; test: Induction of molecular glue effect mediated DNMT1 degradation in human HCT-116 cells transfected with WWP1 siRNA assessed as reduction in DNMT1 protein level at 100 nM measured after 24 hrs by Western blot analysis; format: cell-based; settings: not given

SMILES | Activity
CCc1c(C#N)c(SC(C(N)=O)c2ccccc2)nc(N2CCC(N)CC2)c1C#N (configuration not stated) | Active

tested on: NCI-H1299; test: Effect on DNMT1 mRNA level in human NCI-H1299 cells at 500 nM incubated for 24 hrs by RT-qPCR analysis; format: functional, cell-based; settings: not given

SMILES | Activity
CCc1c(C#N)c(SC(C(N)=O)c2ccccc2)nc(N2CCC(N)CC2)c1C#N (configuration not stated) | inactive

tested on: HCT-116; test: Induction of molecular glue effect mediated DNMT1 degradation in human HCT-116 cells transfected with Smurf2 siRNA assessed as reduction in DNMT1 protein level at 100 nM measured after 24 hrs by Western blot analysis; format: cell-based; settings: not given

SMILES | Activity
CCc1c(C#N)c(SC(C(N)=O)c2ccccc2)nc(N2CCC(N)CC2)c1C#N (configuration not stated) | Active

tested on: MDA-MB-468; test: Induction of molecular glue effect mediated DNMT1 degradation in human MDA-MB-468 cells assessed as reduction in DNMT1 protein level at 100 nM preincubated with MLN4924 for 2 hrs followed by compound addition and measured after 24 hrs by Western blot analysis; format: cell-based; settings: not given

SMILES | Activity
CCc1c(C#N)c(SC(C(N)=O)c2ccccc2)nc(N2CCC(N)CC2)c1C#N (configuration not stated) | Active

tested on: HCT-116; test: Induction of molecular glue effect mediated DNMT1 degradation in human HCT-116 cells assessed as reduction in DNMT1 protein level at 500 nM by Western blot analysis; format: cell-based; settings: time 2-24 hrs

SMILES | Activity
CCc1c(C#N)c(SC(C(N)=O)c2ccccc2)nc(N2CCC(N)CC2)c1C#N (configuration not stated) | Time-dependent-effect

tested on: HCT-116; test: Induction of molecular glue effect mediated DNMT1 degradation in human HCT-116 cells assessed as reduction in DNMT1 protein level at 100 nM preincubated with heclin for 2 hrs followed by compound addition and measured after 24 hrs by Western blot analysis; format: cell-based; settings: not given

SMILES | Activity
CCc1c(C#N)c(SC(C(N)=O)c2ccccc2)nc(N2CCC(N)CC2)c1C#N (configuration not stated) | Not active; Partial Rescue Of Degradation Observed

tested on: HCT-116; test: Induction of molecular glue effect mediated DNMT1 degradation in human HCT-116 cells assessed as reduction in DNMT1 protein level at 500 nM measured after 2 hrs by Western blot analysis relative to control; format: cell-based; parameters: scale not given: the % may be the effect or the level left; settings: not given

SMILES | Activity
CCc1c(C#N)c(SC(C(N)=O)c2ccccc2)nc(N2CCC(N)CC2)c1C#N (configuration not stated) | < 30%

tested on: HCT-116; test: Downregulation of DNMT1 protein level in human HCT-116 cells at 1 uM incubated for 12 hrs by MS-based global proteomic analysis; format: functional, cell-based; settings: not given

SMILES | Activity
CCc1c(C#N)c(SC(C(N)=O)c2ccccc2)nc(N2CCC(N)CC2)c1C#N (configuration not stated) | Active

tested on: not listed separately; test: (§1) Induction of molecular glue effect mediated DNMT1 degradation in human HCT-116 cells assessed as reduction in DNMT1 protein level incubated for 24 hrs by Western blot analysis; format: cell-based; settings: HCT-116, 24 h

SMILES | DC50
CCCNC(=O)C(Sc1nc(N2CCC(N)CC2)c(C#N)c(CC)c1C#N)c1ccccc1 (configuration not stated) | > 1000 nM
CCc1c(C#N)c(SC(C(N)=O)c2ccccc2)nc(N(C)CCN)c1C#N (configuration not stated) | 78 nM

Next, values leading:

DC50 | SMILES
121 nM | CCc1c(C#N)c(SC(C(N)=O)c2ccccc2)nc(N2CCC(=O)N(C)CC2)c1C#N (configuration not stated)
111 nM | CCc1c(C#N)c(SC(C(=O)NC)c2ccccc2)nc(N2CCC(N)CC2)c1C#N (configuration not stated)
107 nM | CCc1c(C#N)c(SC(C(N)=O)c2ccccc2)nc(N2CCN(C(C)=O)CC2)c1C#N (configuration not stated)
92 nM | CCc1c(C#N)c(SC(C(N)=O)c2ccccc2)nc(N2CCC(N)C2)c1C#N (configuration not stated)
35 nM | CCc1c(C#N)c(SC(C(N)=O)c2ccccc2)nc(N2CCC(NC(=O)C34CC5CC(CC(C5)C3)C4)CC2)c1C#N (configuration not stated)

tested on: HCT-116; test: as §1; format: cell-based; settings: not given

SMILES | Activity
CCc1c(C#N)c(SC(C(N)=O)c2ccccc2)nc(N2CCC(N)CC2)c1C#N (configuration not stated) | Dose-dependent-effect

tested on: HCT-116; test: Induction of molecular glue effect mediated DNMT1 degradation in human HCT-116 cells assessed as reduction in DNMT1 protein level at 100 nM preincubated with MG132 for 2 hrs followed by compound addition and measured after 24 hrs by Western blot analysis; format: cell-based; settings: not given

SMILES | Activity
CCc1c(C#N)c(SC(C(N)=O)c2ccccc2)nc(N2CCC(N)CC2)c1C#N (configuration not stated) | inactive

tested on: HCT-116; test: Effect on DNMT1 mRNA level in human HCT-116 cells at 500 nM incubated for 24 hrs by RT-qPCR analysis; format: functional, cell-based; settings: not given

SMILES | Activity
CCc1c(C#N)c(SC(C(N)=O)c2ccccc2)nc(N2CCC(N)CC2)c1C#N (configuration not stated) | inactive

tested on: HCT-116; test: Induction of molecular glue effect mediated DNMT1 degradation in human HCT-116 cells assessed as reduction in DNMT1 protein level by measuring maximal efficacy at 1 uM incubated for 24 hrs by Western blot analysis relative to control; format: cell-based; settings: not given

SMILES | Emax
CCCNC(=O)C(Sc1nc(N2CCC(N)CC2)c(C#N)c(CC)c1C#N)c1ccccc1 (configuration not stated) | 13%
CCc1c(C#N)c(SC(C(N)=O)c2ccccc2)nc(N2CCC(=O)N(C)CC2)c1C#N (configuration not stated) | 86%
CCc1c(C#N)c(SC(C(=O)NC)c2ccccc2)nc(N2CCC(N)CC2)c1C#N (configuration not stated) | 82%
CCc1c(C#N)c(SC(C(N)=O)c2ccccc2)nc(N2CCN(C(C)=O)CC2)c1C#N (configuration not stated) | 87%
CCc1c(C#N)c(SC(C(N)=O)c2ccccc2)nc(N2CCC(N)C2)c1C#N (configuration not stated) | 87%
CCc1c(C#N)c(SC(C(N)=O)c2ccccc2)nc(N(C)CCN)c1C#N (configuration not stated) | 79%
CCc1c(C#N)c(SC(C(N)=O)c2ccccc2)nc(N2CCC(NC(=O)C34CC5CC(CC(C5)C3)C4)CC2)c1C#N (configuration not stated) | 92%
CCc1c(C#N)c(SC(C(N)=O)c2ccccc2)nc(N2CCC(N)CC2)c1C#N (configuration not stated) | 89%

tested on: HCT-116; test: Induction of molecular glue effect mediated DNMT1 degradation in human HCT-116 cells assessed as reduction in DNMT1 protein level at 100 nM preincubated with MLN4924 for 2 hrs followed by compound addition and measured after 24 hrs by Western blot analysis; format: cell-based; settings: not given

SMILES | Activity
CCc1c(C#N)c(SC(C(N)=O)c2ccccc2)nc(N2CCC(N)CC2)c1C#N (configuration not stated) | Active

tested on: HCT-116; test: Induction of molecular glue effect mediated DNMT1 degradation in human HCT-116 cells assessed as reduction in DNMT1 protein level at 100 nM preincubated with TAK-243 for 2 hrs followed by compound addition and measured after 24 hrs by Western blot analysis; format: cell-based; settings: not given

SMILES | Activity
CCc1c(C#N)c(SC(C(N)=O)c2ccccc2)nc(N2CCC(N)CC2)c1C#N (configuration not stated) | inactive

tested on: HCT-116; test: Induction of molecular glue effect mediated DNMT1 degradation in human HCT-116 cells transfected with UHRF1 siRNA assessed as reduction in DNMT1 protein level at 100 nM measured after 24 hrs by Western blot analysis; format: cell-based; settings: not given

SMILES | Activity
CCc1c(C#N)c(SC(C(N)=O)c2ccccc2)nc(N2CCC(N)CC2)c1C#N (configuration not stated) | Not active; Partial Rescue Of Degradation Observed

tested on: HCT-116; test: Induction of molecular glue effect mediated DNMT1 degradation in human HCT-116 cells transfected with NEDD4 siRNA assessed as reduction in DNMT1 protein level at 100 nM measured after 24 hrs by Western blot analysis; format: cell-based; settings: not given

SMILES | Activity
CCc1c(C#N)c(SC(C(N)=O)c2ccccc2)nc(N2CCC(N)CC2)c1C#N (configuration not stated) | Active

tested on: MV4-11; test: Antiproliferative activity against human MV4-11 cells assessed as inhibition of cell growth at 0.177 to 15 uM incubated for 7 days by CCK8 assay; format: functional, cell-based; settings: dose 0.177-15 µM, time 7.0 day

SMILES | Activity
CCc1c(C#N)c(SC(C(N)=O)c2ccccc2)nc(N2CCC(N)CC2)c1C#N (configuration not stated) | Active

tested on: NCI-H1299; test: Induction of molecular glue effect mediated DNMT1 degradation in human NCI-H1299 cells assessed as reduction in DNMT1 protein level at 100 nM preincubated with MLN4924 for 2 hrs followed by compound addition and measured after 24 hrs by Western blot analysis; format: cell-based; settings: not given

SMILES | Activity
CCc1c(C#N)c(SC(C(N)=O)c2ccccc2)nc(N2CCC(N)CC2)c1C#N (configuration not stated) | Active
